PMC11252418, “Specific glycine-dependent enzyme motion determines the potency of conformation selective inhibitors of threonyl-tRNA synthetase” (Communications Biology, 2024)
Several values for one entry are separate records, joined by “and”; a condition that tells them apart may be missing. Identical values can stand only once. Like-named read-outs stand apart in the source and are kept apart here.

Columns and labels:
EcThrRS_G463A [1] = molecular target: T1, EcThrRS_G463A (Escherichia coli, UniProt P0A8M3, G463A); assay: Thermal shift assay (TSA); type: binding
T1 construct: The E. coli ThrRS (residues 242-642, Supplementary Note 1) wild type; 6xHis (C); made in house; host or cells: E. coli BL21 (DE3)
T1 sequence (P0A8M3 242-642 G463A): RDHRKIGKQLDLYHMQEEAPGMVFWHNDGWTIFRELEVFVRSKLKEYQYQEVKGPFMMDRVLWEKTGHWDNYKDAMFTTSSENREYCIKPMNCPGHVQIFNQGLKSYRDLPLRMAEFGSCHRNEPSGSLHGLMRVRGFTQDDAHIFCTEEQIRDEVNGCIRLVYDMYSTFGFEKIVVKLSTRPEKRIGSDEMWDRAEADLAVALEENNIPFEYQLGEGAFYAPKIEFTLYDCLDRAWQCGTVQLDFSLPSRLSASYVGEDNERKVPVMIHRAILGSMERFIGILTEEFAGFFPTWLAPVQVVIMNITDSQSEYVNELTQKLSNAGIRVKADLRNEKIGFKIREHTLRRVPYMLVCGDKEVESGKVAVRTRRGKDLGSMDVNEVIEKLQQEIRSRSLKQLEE
Description: (§1) The EcThrRS_WT and L489M/G463S/G463S_Q484A/G463A/A316N mutant proteins, ObaO_WT and ObaO_S464G mutant proteins were prepared at 2 μM in buffer containing 25 mM Tris-HCl pH 7.5, 200 mM NaCl, and 20 μM OB (GlpBio, US) or BN (GlpBio, US) or ddH2O in equal volumes since the compounds were diluted with ddH2O to 1 mM as stocks. […] SYPRO orange dye (Sigma, USA) was diluted in assay buffer containing 25 mM Tris-HCl pH 7.5 and 200 mM NaCl to a 40× concentration, and was added to the mixture to a final 4× concentration. Aliquots (20 μL) were added to a 96-well PCR plate. After complete mixing, the final solutions were heated from 25 to 95 °C at a rate of 0.015 °C/s, and fluorescence signals were monitored by QuantStudio 3 (Applied Biosystems by Thermo Fisher Scientific, USA). The melting temperature (Tm) was calculated through a previously established method[56],[57].

EcThrRS_G463S [2] = molecular target: T2, EcThrRS_G463S (Escherichia coli, UniProt P0A8M3, G463S); assay: Thermal shift assay (TSA); type: binding
T2 construct: The E. coli ThrRS (residues 242-642, Supplementary Note 1) wild type; 6xHis (C); made in house; host or cells: E. coli BL21 (DE3)
T2 sequence (P0A8M3 242-642 G463S): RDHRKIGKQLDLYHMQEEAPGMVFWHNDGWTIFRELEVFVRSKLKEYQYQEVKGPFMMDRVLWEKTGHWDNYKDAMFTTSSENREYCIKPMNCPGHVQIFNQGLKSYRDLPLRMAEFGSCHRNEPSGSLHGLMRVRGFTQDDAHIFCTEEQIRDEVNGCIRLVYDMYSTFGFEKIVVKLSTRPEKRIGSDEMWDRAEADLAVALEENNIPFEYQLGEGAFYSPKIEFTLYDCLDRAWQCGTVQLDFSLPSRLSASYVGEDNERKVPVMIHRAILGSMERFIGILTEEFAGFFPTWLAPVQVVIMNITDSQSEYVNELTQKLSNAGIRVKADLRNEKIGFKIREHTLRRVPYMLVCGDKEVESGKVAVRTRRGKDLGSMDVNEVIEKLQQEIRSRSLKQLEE
Description: as §1

EcThrRS_G463S [3] = molecular target: T2, EcThrRS_G463S; assay: ATP hydrolysis assay; type: biochemical; conditions: BN, replicates, sheet Fig.7d
EcThrRS_WT = molecular target: T3, EcThrRS_WT (Escherichia coli, UniProt P0A8M3); assay: ATP hydrolysis assay; type: biochemical; conditions: for ATP hydrolysis activity, inhibitory curve data point: BN, replicates, sheet Fig.7d
T3 construct: The E. coli ThrRS (residues 242-642, Supplementary Note 1) wild type; 6xHis (C); made in house; host or cells: E. coli BL21 (DE3)
T3 sequence (P0A8M3 242-642): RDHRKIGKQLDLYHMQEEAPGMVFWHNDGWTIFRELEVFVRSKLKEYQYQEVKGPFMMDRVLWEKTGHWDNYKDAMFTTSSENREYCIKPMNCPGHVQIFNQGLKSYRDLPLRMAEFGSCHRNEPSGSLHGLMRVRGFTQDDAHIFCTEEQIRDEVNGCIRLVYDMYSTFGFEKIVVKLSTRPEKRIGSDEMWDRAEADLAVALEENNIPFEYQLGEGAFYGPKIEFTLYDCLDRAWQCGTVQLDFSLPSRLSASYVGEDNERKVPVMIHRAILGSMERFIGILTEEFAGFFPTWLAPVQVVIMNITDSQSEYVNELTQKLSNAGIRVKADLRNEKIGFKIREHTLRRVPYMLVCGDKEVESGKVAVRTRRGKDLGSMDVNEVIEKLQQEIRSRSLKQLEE
Description: (§2) 200 nM EcThrRS wide type and mutants, ObaO and ObaO_S464G mutant were incubated with serially diluted OB (0 to 10 μM for EcThrRS, 0 to 40 μM for ObaO) in a buffer containing 25 mM HEPES pH 7.5, 50 mM NaCl, 40 mM MgCl2, 30 mM KCl, 0.01 mg/mL bovine serum albumin (BSA), and 0.004% Tween-20 at 37 °C for 4 h and then mixed 1:1 with a substrate mixture containing 4 μM ATP, 40 μM L-threonine, 25 mM HEPES pH 7.5, 50 mM NaCl, 40 mM MgCl2, 30 mM KCl, 0.01 mg/mL BSA, and 0.004% Tween-20. The ATP hydrolysis reaction was performed at 37 °C for 4 h.
(§3) After incubation, the detection solution from the Kinase-Glo® luminescent kit (Promega, USA) was added to the reaction system at a 1:1 ratio, and the mixture was gently shaken for 10 min. The chemiluminescence signal was measured using a microplate reader (Tecan, USA). All experiments were performed in four replicates. The data were processed using GraphPad Prism 8 software.

EcThrRS_G463A [4] = molecular target: T1, EcThrRS_G463A; assay: ATP hydrolysis assay; type: biochemical; conditions: for ATP hydrolysis activity, inhibitory curve data point: BN, replicates, sheet Fig.7d
Description: as §2, §3

EcThrRS_G463S [5] = molecular target: T2, EcThrRS_G463S; assay: ATP hydrolysis assay; type: biochemical
Description: as §2, §3

[6] = 2 μM protein, 20 μM compound, mean n = 4, read-out: ΔTm (increase of Tm)

## C[C@@H]1C[C@H](C)C[C@H](C)[C@@H](O)CC(=O)O[C@H]([C@@H]2CCC[C@H]2C(=O)O)C/C=C/C=C(/C#N)[C@H](O)[C@@H](C)C1 [BN, borrelidin]
EcThrRS_G463A [1]; [6]
  ΔTm at 20 µM: 19.1 °C
EcThrRS_G463A [1]; source data sheet Fig.7c, ThrRS_G463A, read-out: ΔTm, single replicates
  ΔTm at 20 µM: 19.1 °C
EcThrRS_G463S [2]; [6]
  ΔTm at 20 µM: 17.4 °C
EcThrRS_G463S [2]; source data sheet Fig.7c, ThrRS_G463S, read-out: ΔTm, single replicates
  ΔTm at 20 µM: 17.3 °C
EcThrRS_G463S [3]; Log10 Conc. 1.477, G463S
  ATP hydrolysis activity, inhibitory curve data point: 98.112 and 97.245 and 94.519 and 96.966
EcThrRS_G463S [3]; Log10 Conc. 2.000, G463S
  ATP hydrolysis activity, inhibitory curve data point: 96.048 and 91.632 and 90.284 and 92.020
EcThrRS_G463S [3]; Log10 Conc. 2.477, G463S
  ATP hydrolysis activity, inhibitory curve data point: 91.563 and 88.959 and 88.970 and 89.661
EcThrRS_G463S [3]; Log10 Conc. 3.000, G463S
  ATP hydrolysis activity, inhibitory curve data point: 84.928 and 77.254 and 80.440 and 82.267
EcThrRS_G463S [3]; Log10 Conc. 4.000, G463S
  ATP hydrolysis activity, inhibitory curve data point: 53.455 and 58.497 and 57.343 and 60.957
EcThrRS_WT; Log10 Conc. 1.477, WT
  ATP hydrolysis activity, inhibitory curve data point: 101.322 and 78.096 and 79.643 and 84.982
EcThrRS_WT; Log10 Conc. 2.000, WT
  ATP hydrolysis activity, inhibitory curve data point: 101.576 and 82.194 and 100.286 and 100.117
EcThrRS_WT; Log10 Conc. 2.477, WT
  ATP hydrolysis activity, inhibitory curve data point: 72.956 and 78.844 and 97.078 and 88.856
EcThrRS_WT; Log10 Conc. 3.000, WT
  ATP hydrolysis activity, inhibitory curve data point: -7.239 and -12.609 and 12.089 and 13.133
EcThrRS_WT; Log10 Conc. 3.477, WT
  ATP hydrolysis activity, inhibitory curve data point: -29.715 and 1.779 and -2.712 and 18.045
EcThrRS_WT; Log10 Conc. 4.000, WT
  ATP hydrolysis activity, inhibitory curve data point: -14.823 and -17.346 and -12.025 and -9.555
EcThrRS_WT; in the presence of 2 μM ATP and 20 μM L-Thr
  IC50: 559 nM
EcThrRS_G463A [4]; 2 μM ATP and 20 μM L-Thr
  decrease of inhibitory effect vs EcThrRS_WT: more than 20 fold
EcThrRS_G463A [4]; Log10 Conc. 1.477, G463A
  ATP hydrolysis activity, inhibitory curve data point: 95.000 and 86.999 and 114.196 and 92.149
EcThrRS_G463A [4]; Log10 Conc. 2.000, G463A
  ATP hydrolysis activity, inhibitory curve data point: 87.423 and 89.051 and 94.722 and 94.776
EcThrRS_G463A [4]; Log10 Conc. 2.477, G463A
  ATP hydrolysis activity, inhibitory curve data point: 87.400 and 82.253 and 93.320 and 93.112
EcThrRS_G463A [4]; Log10 Conc. 3.000, G463A
  ATP hydrolysis activity, inhibitory curve data point: 81.982 and 81.596 and 85.557 and 86.320
EcThrRS_G463A [4]; Log10 Conc. 3.477, G463A
  ATP hydrolysis activity, inhibitory curve data point: 63.653 and 64.234 and 69.634 and 68.650
EcThrRS_G463A [4]; Log10 Conc. 4.000, G463A
  ATP hydrolysis activity, inhibitory curve data point: 68.712 and 73.186 and 66.040 and 70.648
EcThrRS_G463S [5]; 2 μM ATP and 20 μM L-Thr
  decrease of inhibitory effect vs EcThrRS_WT: more than 20 fold
EcThrRS_G463S [5]; BN, Log10 Conc. 3.477, G463S, replicates, sheet Fig.7d
  ATP hydrolysis activity, inhibitory curve data point: 72.021 and 67.252 and 61.642 and 63.732
